Key:
β-secretase (BACE-1) = β-secretase (BACE-1) (Homo sapiens, UniProt P56817); test: fluorescence kit assay, slope based; format: biochemical
[1] = molecular target: acetylcholinesterase (AChE); test: colorimetric kinetic kit assay, […] nm; format: biochemical; details: room temperature, 10-15 min preincubation

Chain of β-secretase (BACE-1) (P56817 46-501): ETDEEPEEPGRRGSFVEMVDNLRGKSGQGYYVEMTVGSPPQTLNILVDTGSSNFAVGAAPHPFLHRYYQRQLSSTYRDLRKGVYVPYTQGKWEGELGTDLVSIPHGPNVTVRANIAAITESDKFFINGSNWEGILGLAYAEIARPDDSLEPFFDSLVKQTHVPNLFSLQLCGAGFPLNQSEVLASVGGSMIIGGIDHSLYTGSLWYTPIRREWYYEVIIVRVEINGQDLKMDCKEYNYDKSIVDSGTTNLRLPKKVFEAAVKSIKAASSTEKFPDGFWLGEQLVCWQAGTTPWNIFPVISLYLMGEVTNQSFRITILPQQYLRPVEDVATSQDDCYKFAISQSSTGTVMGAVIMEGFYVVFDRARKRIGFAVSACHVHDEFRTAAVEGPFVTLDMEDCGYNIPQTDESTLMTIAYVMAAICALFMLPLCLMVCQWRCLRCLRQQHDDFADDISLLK

With `CC(=O)[N+](C)(C)CCc1ccc(O)cc1` [compound 6, N-acetyl hordenine] the IC50 (β-secretase (BACE-1)) was 8210 nM and the “AChE (μg mL^-1 ± SD)” value [1] was 2.255 ± 0.074 µg/mL.

In the case of `O=c1c(O)c(-c2ccc(O)cc2)oc2cc(O)cc(O)c12` [compound 2, 3,4′,5,7-tetrahydroxyflavone], the IC50 (β-secretase (BACE-1)) is reported as 25100 nM and the “AChE (μg mL^-1 ± SD)” value [1] is reported as 1.099 ± 0.03 µg/mL.

`COc1c(-c2ccc(O)cc2)oc2cc(O)cc(O)c2c1=O` [compound 3, isokaempferide] was tested, and the IC50 (β-secretase (BACE-1)) was 446 nM and the “AChE (μg mL^-1 ± SD)” value [1] was 0.483 ± 0.015 µg/mL.

With `CC1=CC(=O)CC(C)(C)[C@@]1(O)/C=C/[C@@H](C)O[C@@H]1O[C@H](CO)[C@@H](O)[C@H](O)[C@H]1O` [compound 4, vomifoliol-9-O-β-D-glucopyranoside] the IC50 (β-secretase (BACE-1)) was 171 nM and the “AChE (μg mL^-1 ± SD)” value [1] was 0.452 ± 0.014 µg/mL.

In the case of `O=C1C[C@@H](c2ccc(O)cc2)Oc2cc(O)cc(O)c21` [compound 1, naringenin], the IC50 (β-secretase (BACE-1)) is reported as 1550 nM and the “AChE (μg mL^-1 ± SD)” value [1] is reported as 0.212 ± 0.007 µg/mL.

For `CC(=O)[N+](C)(CCl)CCc1ccc(O)cc1` (centres unmarked) [compound 7, N-acetyl-N-chloromethyl-N-methyl tyramine], the IC50 (β-secretase (BACE-1)) was 494 nM and the “AChE (μg mL^-1 ± SD)” value [1] was 0.607 ± 0.02 µg/mL.

In the case of `C[N+](C)(CCl)CCc1ccc(O)cc1` [compound 5, N-chloromethyl hordenine], the IC50 (β-secretase (BACE-1)) is reported as 1250 nM and the “AChE (μg mL^-1 ± SD)” value [1] is reported as 0.076 ± 0.002 µg/mL.
